Reference: ChEMBL document CHEMBL3868610, “Novel bicyclo[3.1.0]hexane analogs as antagonists of metabotropic glutamate 2/3 receptors for the treatment of depression” (Bioorg Med Chem Lett, 2016)
In brackets after ≈: the same amount, converted by molar mass.

Columns and labels:
[1] = Drug uptake in NIH Swiss Webster mouse brain at 3 mg/kg, ip at 30 mins; assay type: ADME, organism-based; conditions: read-out: Drug uptake
[2] = Ratio of drug level in brain to plasma in mouse at 10 mg/kg, ip after 30 mins; assay type: ADME, organism-based; conditions: read-out: BPR
[3] = Drug metabolism in monkey microsomes at 4 uM after 30 mins; assay type: ADME, Macaca mulatta, Microsome; conditions: rhesus monkey, read-out: Drug metabolism
[4] = Volume of distribution at steady state in rat at 1 mg/kg, iv; assay type: ADME, organism-based; conditions: in vivo, read-out: Vdss
[5] = Antidepressant activity in NIH Swiss Webster mouse assessed as immobility time at 3 mg/kg, ip administered 30 mins prior to test measured during last 4 mins of the 6 mins observation time by forced swim test (reference value: 142 sec); assay type: functional, organism-based
[6] = Drug metabolism in human microsomes at 4 uM after 30 mins; assay type: ADME, Microsome; conditions: read-out: Drug metabolism
[7] = Antidepressant activity in rat EEG model assessed as accumulated wake time at 10 mg/kg, ip measured over 7 hrs relative to control; assay type: functional, organism-based
[8] = biological target: T1, Metabotropic glutamate receptor 2 (Homo sapiens, UniProt Q14416); assay: Agonist activity at recombinant human mGlu2 receptor expressed in hamster AV12 cells co-expressing human EAAT1 assessed as increase in forskolin-stimulated cAMP formation up to 25 uM after 20 mins by HTRF assay; assay type: functional, cell-based
Target sequence in this assay (Q14416 whole entry): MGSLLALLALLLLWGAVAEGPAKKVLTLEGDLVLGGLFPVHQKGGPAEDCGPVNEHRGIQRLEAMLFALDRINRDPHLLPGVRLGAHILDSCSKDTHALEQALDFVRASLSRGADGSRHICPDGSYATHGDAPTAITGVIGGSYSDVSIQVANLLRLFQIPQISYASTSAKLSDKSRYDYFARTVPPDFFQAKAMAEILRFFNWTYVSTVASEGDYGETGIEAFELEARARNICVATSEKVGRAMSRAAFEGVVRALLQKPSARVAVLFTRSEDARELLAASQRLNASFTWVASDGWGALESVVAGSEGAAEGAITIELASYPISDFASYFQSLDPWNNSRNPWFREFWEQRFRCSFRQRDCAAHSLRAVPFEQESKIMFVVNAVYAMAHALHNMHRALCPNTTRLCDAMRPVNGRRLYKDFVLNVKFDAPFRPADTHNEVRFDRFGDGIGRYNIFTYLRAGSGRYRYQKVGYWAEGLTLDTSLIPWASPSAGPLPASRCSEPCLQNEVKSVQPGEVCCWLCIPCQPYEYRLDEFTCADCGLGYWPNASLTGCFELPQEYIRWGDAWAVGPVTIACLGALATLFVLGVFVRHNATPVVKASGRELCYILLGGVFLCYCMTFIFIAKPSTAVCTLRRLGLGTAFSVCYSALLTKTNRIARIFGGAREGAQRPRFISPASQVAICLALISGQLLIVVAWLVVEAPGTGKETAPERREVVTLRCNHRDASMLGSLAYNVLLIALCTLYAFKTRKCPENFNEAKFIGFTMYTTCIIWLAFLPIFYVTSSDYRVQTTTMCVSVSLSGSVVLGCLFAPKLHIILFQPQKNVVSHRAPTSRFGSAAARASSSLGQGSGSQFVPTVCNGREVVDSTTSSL

[9] = Aqueous solubility of compound at pH 7.4; assay type: physicochemical; conditions: aqueous medium
Rattus norvegicus [10] = assay: Toxicity in rat assessed as increase in locomotive activity at 3 to 10 mg/kg, ip; assay type: organism-based; conditions: in vivo
[11] = Permeability from apical side to basolateral side in MDCK cells at 20 uM; assay type: ADME, cell-based, Canis lupus familiaris; conditions: dog
Rattus norvegicus [12] = assay: Toxicity in rat assessed as NREM sleep at 3 to 10 mg/kg, ip; assay type: organism-based; conditions: in vivo
[13] = AUC (0 to 24 hrs) in rat at 10 mg/kg, ip; assay type: ADME, organism-based; parameters: dose 10 mg/kg, time < 24 hr, route intraperitoneal; conditions: in vivo
[14] = biological target: T1, Metabotropic glutamate receptor 2; assay: Antagonist activity at recombinant human mGlu2 receptor expressed in hamster AV12 cells co-expressing human EAAT1 assessed as reduction of DCG-4-inhibited forskolin-stimulated cAMP formation after 20 mins by HTRF assay; assay type: functional, cell-based
[15] = Antidepressant activity in rat EEG model assessed as accumulated wake time at 3 mg/kg, ip measured over 7 hrs relative to control; assay type: functional, organism-based
[16] = Unbound fraction in human plasma at 1 uM; assay type: ADME, cell-free
[17] = Tmax in rat at 5 mg/kg, po; assay type: ADME, organism-based; conditions: in vivo
[18] = biological target: Metabotropic glutamate receptor 3 (Homo sapiens, UniProt Q14832); assay: Antagonist activity at recombinant human mGlu3 receptor expressed in hamster AV12 cells co-expressing human EAAT1 assessed as reduction of DCG-4-inhibited forskolin-stimulated cAMP formation after 20 mins by HTRF assay; assay type: functional, cell-based
[19] = biological target: Metabotropic glutamate receptor 1 (Homo sapiens, UniProt Q13255); assay: Antagonist activity at recombinant human mGlu1 receptor expressed in hamster AV12 cells coexpressing human EAAT1/Galpha1s assessed as inhibition of Ca2+ flux by Fluo-3-AM dye based FLIPR assay; assay type: functional, cell-based
Sequence of Metabotropic glutamate receptor 1 (Q13255 whole entry): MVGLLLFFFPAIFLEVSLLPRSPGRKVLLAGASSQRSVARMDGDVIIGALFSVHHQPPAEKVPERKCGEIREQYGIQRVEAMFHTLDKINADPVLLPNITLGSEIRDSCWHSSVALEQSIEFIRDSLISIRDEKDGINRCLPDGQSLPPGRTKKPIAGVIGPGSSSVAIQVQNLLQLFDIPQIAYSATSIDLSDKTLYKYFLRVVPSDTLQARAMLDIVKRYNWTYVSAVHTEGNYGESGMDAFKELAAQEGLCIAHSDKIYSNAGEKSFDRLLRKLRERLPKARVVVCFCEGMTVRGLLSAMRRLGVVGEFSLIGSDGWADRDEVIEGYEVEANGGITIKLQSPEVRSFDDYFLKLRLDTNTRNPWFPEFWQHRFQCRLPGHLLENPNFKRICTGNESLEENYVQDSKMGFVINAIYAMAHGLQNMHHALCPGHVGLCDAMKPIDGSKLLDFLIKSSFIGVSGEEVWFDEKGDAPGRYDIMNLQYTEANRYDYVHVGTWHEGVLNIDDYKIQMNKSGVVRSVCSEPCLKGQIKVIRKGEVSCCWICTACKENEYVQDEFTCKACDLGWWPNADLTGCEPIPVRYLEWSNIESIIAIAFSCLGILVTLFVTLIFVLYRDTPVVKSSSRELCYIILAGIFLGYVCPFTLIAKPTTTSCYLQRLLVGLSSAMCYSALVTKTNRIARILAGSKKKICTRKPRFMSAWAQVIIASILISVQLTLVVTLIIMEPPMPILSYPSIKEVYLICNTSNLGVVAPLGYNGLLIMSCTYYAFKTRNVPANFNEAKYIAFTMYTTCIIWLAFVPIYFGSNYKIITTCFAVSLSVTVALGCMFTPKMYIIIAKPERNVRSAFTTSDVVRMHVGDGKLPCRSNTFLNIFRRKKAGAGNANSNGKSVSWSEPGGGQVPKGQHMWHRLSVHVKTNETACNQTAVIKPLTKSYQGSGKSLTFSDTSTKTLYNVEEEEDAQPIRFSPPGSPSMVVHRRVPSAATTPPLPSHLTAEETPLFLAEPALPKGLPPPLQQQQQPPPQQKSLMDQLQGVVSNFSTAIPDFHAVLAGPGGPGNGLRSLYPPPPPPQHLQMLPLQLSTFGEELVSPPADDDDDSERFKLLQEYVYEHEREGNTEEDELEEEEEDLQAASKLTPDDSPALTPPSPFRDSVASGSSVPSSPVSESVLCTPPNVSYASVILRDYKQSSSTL

[20] = biological target: Metabotropic glutamate receptor 5 (Homo sapiens, UniProt P41594); assay: Agonist activity at recombinant human mGlu5 receptor expressed in hamster AV12 cells co-expressing human EAAT1/Galpha1s assessed as increase in Ca2+ flux by Fluo-3-AM dye based FLIPR assay; assay type: functional, cell-based
Sequence of Metabotropic glutamate receptor 5 (P41594 whole entry): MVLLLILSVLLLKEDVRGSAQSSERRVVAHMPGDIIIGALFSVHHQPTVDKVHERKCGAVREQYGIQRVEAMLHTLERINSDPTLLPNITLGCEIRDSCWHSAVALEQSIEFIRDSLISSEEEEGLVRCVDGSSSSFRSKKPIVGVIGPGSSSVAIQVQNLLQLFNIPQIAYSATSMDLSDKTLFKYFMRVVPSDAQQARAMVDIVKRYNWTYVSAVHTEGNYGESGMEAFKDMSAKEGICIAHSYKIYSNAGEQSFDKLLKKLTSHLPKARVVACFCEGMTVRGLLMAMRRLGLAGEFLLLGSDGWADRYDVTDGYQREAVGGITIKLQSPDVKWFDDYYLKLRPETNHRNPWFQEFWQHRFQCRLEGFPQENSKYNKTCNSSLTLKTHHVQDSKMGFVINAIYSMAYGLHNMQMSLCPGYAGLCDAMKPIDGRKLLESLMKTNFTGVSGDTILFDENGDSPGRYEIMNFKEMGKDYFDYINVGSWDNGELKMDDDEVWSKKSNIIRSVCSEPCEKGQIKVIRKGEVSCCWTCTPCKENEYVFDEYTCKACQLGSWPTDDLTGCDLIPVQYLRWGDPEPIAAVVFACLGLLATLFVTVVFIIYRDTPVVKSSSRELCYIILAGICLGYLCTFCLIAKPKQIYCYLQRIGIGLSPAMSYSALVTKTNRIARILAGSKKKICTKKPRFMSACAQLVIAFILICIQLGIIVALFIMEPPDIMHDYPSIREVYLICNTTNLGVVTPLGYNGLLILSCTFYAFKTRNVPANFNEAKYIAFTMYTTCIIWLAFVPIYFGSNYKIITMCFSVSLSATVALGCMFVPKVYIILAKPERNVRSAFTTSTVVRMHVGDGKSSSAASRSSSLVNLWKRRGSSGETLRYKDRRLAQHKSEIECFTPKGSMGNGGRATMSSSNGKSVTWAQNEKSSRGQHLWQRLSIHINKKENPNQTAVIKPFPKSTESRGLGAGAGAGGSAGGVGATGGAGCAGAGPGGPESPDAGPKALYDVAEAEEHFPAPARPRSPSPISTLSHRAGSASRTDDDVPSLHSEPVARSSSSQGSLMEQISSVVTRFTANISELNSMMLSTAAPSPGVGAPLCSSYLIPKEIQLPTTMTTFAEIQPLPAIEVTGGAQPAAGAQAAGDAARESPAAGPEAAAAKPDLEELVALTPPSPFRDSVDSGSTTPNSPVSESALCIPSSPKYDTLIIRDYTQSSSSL

[21] = Cmax in rat at 10 mg/kg, ip; assay type: ADME, organism-based; parameters: dose 10 mg/kg, route intraperitoneal; conditions: in vivo

concentration at 0.5 h [1]: 248 nM | Kp at 0.5 h [2]: 0.015 | metabolised at 0.5 h, 4 µM [3]: < 20% | Vd [4]: 0.589 L/kg | metabolised at 0.5 h, 4 µM [6]: < 20% | EC50 [8]: > 25 µM | solubility [9]: 778 µg/mL (≈ 2070 µM) | permeability [11]: 2% | AUC(0-t) at 24 h [13]: 116 µM·h | IC50 [14]: 46 nM | Imax [14]: > 94% | fraction unbound at 1 µM [16]: > 0.4 | Tmax [17]: 1.67 h | IC50 [18]: 46.1 nM | Imax [18]: > 94% | IC50 [19]: > 12.5 µM | EC50 [20]: > 25 µM | Cmax [21]: 48.1 µM
SMILES: N[C@]1(C(=O)O)[C@@H]2[C@@H](C(=O)O)[C@@H]2[C@H](O)[C@H]1OCc1ccc(Cl)c(Cl)c1
TIME [5]: 0.0167 h | TIME [7]: 0.683 h | Activity (Rattus norvegicus [10]): Non-Toxic | Activity (Rattus norvegicus [12]): Non-Toxic | Activity [15]: Dose-dependent effect
